# Data published in ChEMBL document CHEMBL4402585 (J Med Chem, 2020).
# Calls of active or inactive are those of the source. No cut-off for these calls is given here.
# Columns and labels:
# [1] = target: T1, Bromodomain-containing protein 4 (Homo sapiens, UniProt O60885); assay: Inhibition of HSGRGK(Ac)GGK(Ac)GLGK(Ac)GGAK(Ac)RHRK(Biotin)-OH binding to recombinant human His6-tagged BRD4 bromodomain 1 expressed in Escherichia coli BL21 (DE3)-R3-pRARE2 cells preincubated for 30 mins followed by HSGRGK(Ac)GGK(Ac)GLGK(Ac)GGAK(Ac)RHRK(Biotin)-OH addition and measured after 30 mins by Alphascreen assay
# [2] = Half life in rat liver microsomes at 0.1 uM preincubated for 10 mins followed by NADPH addition and measured up to 60 mins by LC-MS/MS analysis; type: ADME, Microsome
# [3] = target: Histone acetyltransferase p300 (Homo sapiens, UniProt Q09472); assay: Inhibition of MSGRGK(Ac)-GGK(Ac)GLGK(Ac)GGAKRHR-biotin binding to EP300 (1040 to 1160 residues) (unknown origin) expressed in Escherichia coli BL21 (DE3) by Alphascreen assay
# Sequence of Histone acetyltransferase p300 (Q09472 whole entry, the tested form may be a part): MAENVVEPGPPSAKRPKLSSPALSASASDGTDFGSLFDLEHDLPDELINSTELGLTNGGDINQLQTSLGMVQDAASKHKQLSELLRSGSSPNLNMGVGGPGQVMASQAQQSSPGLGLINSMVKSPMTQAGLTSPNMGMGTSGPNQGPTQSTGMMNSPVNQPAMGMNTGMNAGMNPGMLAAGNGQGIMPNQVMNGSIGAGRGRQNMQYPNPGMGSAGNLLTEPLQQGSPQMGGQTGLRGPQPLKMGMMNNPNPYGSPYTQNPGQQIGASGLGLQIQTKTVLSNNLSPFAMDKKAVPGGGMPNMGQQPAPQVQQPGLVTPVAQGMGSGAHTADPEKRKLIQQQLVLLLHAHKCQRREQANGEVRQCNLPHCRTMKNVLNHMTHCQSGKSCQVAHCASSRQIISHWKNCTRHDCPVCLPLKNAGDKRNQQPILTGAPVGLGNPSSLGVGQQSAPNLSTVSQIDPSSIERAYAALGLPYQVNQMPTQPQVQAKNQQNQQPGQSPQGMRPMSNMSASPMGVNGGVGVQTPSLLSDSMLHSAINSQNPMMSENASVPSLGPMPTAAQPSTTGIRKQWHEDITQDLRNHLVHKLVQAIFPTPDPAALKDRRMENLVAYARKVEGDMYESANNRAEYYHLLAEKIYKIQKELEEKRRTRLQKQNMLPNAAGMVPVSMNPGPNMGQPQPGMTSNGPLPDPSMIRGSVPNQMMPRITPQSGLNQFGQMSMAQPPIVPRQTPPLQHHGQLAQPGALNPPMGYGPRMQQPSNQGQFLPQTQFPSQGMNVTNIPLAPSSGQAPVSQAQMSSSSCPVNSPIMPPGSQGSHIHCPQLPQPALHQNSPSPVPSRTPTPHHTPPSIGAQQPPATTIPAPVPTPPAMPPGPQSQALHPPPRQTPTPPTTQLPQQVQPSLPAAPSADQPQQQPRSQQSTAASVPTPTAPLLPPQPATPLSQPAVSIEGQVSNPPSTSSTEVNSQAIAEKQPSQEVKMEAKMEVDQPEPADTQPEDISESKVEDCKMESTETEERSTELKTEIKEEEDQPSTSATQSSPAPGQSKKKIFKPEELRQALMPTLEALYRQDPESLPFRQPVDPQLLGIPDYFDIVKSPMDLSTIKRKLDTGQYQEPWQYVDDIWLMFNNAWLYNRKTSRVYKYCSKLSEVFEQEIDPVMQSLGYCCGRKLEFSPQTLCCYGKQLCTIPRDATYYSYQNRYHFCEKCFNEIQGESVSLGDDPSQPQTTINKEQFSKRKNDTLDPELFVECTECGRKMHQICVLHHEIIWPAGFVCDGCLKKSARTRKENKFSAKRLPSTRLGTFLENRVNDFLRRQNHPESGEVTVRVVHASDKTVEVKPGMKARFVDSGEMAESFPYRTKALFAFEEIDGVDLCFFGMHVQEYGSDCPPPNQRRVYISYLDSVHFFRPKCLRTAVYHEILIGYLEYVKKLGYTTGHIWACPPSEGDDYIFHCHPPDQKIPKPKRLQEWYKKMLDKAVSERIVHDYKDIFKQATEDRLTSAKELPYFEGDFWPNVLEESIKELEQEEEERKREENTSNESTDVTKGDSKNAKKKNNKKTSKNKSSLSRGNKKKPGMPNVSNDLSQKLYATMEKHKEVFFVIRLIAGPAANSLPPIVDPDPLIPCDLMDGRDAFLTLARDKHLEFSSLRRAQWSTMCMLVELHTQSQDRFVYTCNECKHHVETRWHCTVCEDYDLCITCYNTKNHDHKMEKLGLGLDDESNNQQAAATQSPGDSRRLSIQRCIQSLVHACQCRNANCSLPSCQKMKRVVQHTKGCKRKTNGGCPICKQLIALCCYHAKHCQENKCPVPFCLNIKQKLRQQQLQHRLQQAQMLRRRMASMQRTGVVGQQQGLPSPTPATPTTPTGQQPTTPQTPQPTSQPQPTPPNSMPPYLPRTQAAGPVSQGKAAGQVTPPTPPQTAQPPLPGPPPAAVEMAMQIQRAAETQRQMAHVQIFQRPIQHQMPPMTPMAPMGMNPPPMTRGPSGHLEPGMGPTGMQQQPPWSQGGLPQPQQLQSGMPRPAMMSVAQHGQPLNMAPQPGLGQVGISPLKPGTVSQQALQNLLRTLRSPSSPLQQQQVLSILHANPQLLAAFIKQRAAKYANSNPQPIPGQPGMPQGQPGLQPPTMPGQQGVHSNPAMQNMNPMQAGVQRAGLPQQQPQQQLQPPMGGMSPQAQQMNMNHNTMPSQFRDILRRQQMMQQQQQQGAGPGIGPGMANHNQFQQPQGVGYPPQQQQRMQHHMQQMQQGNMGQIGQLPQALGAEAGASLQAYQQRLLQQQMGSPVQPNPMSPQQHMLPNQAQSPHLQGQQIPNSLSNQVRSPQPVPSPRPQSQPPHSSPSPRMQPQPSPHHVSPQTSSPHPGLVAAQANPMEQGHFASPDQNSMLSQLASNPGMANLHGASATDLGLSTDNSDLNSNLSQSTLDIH
# [4] = Half life in mouse liver microsomes at 0.1 uM preincubated for 10 mins followed by NADPH addition and measured up to 60 mins by LC-MS/MS analysis; type: ADME, Microsome
# MV4-11 [5] = assay: Antiproliferative activity against human MV4-11 cells assessed as reduction in cell viability measured after 72 hrs by Celltitre-glo luminescence assay; type: functional, cell-based; details: MV4-11, 72 h
# [6] = target: T1, Bromodomain-containing protein 4
# Description: Binding affinity to N-terminal His6-tagged BRD4 bromodomain 1 (49 to 170 residues) (unknown origin) expressed in Escherichia coli BL21 (DE3) assessed as change in melting temperature at 1:100 molar ratio by SYPRO orange dye based fluorescence thermal shift assay
# [7] = Clearance in mouse liver microsomes at 0.1 uM preincubated for 10 mins followed by NADPH addition and measured up to 60 mins by LC-MS/MS analysis; type: ADME, Microsome; details: 1 h
# [8] = Clearance in human liver microsomes at 0.1 uM preincubated for 10 mins followed by NADPH addition and measured up to 60 mins by LC-MS/MS analysis; type: ADME, Microsome; details: 1 h
# [9] = Half life in human liver microsomes at 0.1 uM preincubated for 10 mins followed by NADPH addition and measured up to 60 mins by LC-MS/MS analysis; type: ADME, Microsome
# [10] = Clearance in rat liver microsomes at 0.1 uM preincubated for 10 mins followed by NADPH addition and measured up to 60 mins by LC-MS/MS analysis; type: ADME, Microsome; details: 1 h
# [11] = target: T1, Bromodomain-containing protein 4; assay: Inhibition of SGRG-K(Ac)-GG-K(Ac)-GLG-K(Ac)-GGA-K(Ac)-RHRKVGG-K-Biotin binding to N-terminal His6-tagged BRD4 bromodomain 1 (49 to 170 residues) (unknown origin) expressed in Escherichia coli BL21 (DE3) preincubated for 15 mins followed by biotin-labeled H4 peptide addition and measured after 10 mins by Alphascreen assay
# [12] = target: T1, Bromodomain-containing protein 4; assay: Inhibition of SGRG-K(Ac)-GG-K(Ac)-GLG-K(Ac)-GGA-K(Ac)-RHRKVGG-K-Biotin binding to N-terminal His6-tagged BRD4 bromodomain 2 (344 to 455 residues) (unknown origin) expressed in Escherichia coli BL21 (DE3) preincubated for 15 mins followed by biotin-labeled H4 peptide addition and measured after 10 mins by Alphascreen assay
# [13] = target: T1, Bromodomain-containing protein 4; assay: Inhibition of BRD4 (unknown origin)
# RS4-11 = assay: Antiproliferative activity against human RS4:11 cells assessed as reduction in cell viability measured after 72 hrs by Celltitre-glo luminescence assay; type: functional, cell-based; details: RS4-11, 72 h
# MV4-11 [14] = assay: Antitumor activity against human MV4-11 cells xenografted in mouse assessed as tumor growth inhibition at 50 mg/kg, po administered for 28 days and measured every 2 to 3 days during compound dosing relative to control; type: functional; details: MV4-11, po, read-out: TGI
# MM1.S = assay: Antiproliferative activity against human MM1S cells assessed as reduction in cell viability measured after 72 hrs by Celltitre-glo luminescence assay; type: functional, cell-based
# Kasumi 1 = assay: Antiproliferative activity against human Kasumi-1 cells assessed as reduction in cell viability measured after 72 hrs by Celltitre-glo luminescence assay; type: functional, cell-based; details: Kasumi 1, 72 h
# MV4-11 [15] = assay: Cell cycle arrest in human MV4-11 cells assessed as increase in accumulation at G1-phase at 125 nM measured after 24 hrs by propidium iodide staining based flow cytometry; type: functional
# [16] = AUC (0 to t) in Sprague-Dawley rat at 1 mg/kg, iv by LC-MS/MS analysis; type: ADME, organism-based; details: in vivo
# [17] = Half life in Sprague-Dawley rat at 3 mg/kg, po by LC-MS/MS analysis; type: ADME, organism-based; details: in vivo
# [18] = Clearance in Sprague-Dawley rat at 1 mg/kg, iv by LC-MS/MS analysis; type: ADME, organism-based; details: in vivo
# [19] = Half life in Sprague-Dawley rat at 1 mg/kg, iv by LC-MS/MS analysis; type: ADME, organism-based; details: in vivo
# [20] = Cmax in Sprague-Dawley rat at 3 mg/kg, po by LC-MS/MS analysis; type: ADME, organism-based; design: dose 3 mg/kg, route oral; details: in vivo
# [21] = Volume of distribution at steady state in Sprague-Dawley rat at 1 mg/kg, iv by LC-MS/MS analysis; type: ADME, organism-based; details: in vivo, read-out: Vdss
# [22] = Oral bioavailability in Sprague-Dawley rat at 3 mg/kg by LC-MS/MS analysis; type: ADME, organism-based; details: in vivo
# [23] = AUC (0 to t) in Sprague-Dawley rat at 3 mg/kg, po by LC-MS/MS analysis; type: ADME, organism-based; details: in vivo
Compound,half-life at 0.1 µM [2] [min],IC50 [3] [nM],half-life at 0.1 µM [4] [min],IC50 (MV4-11 [5]) [nM],ΔTm [6] [°C],Microsomal intrinsic clearance [7] [mL/min/g],Microsomal intrinsic clearance [8] [mL/min/g],half-life at 0.1 µM [9] [min],Intrinsic clearance [10] [mL/min/g],IC50 [11] [nM],IC50 [12] [nM],also measured
CC(=O)C[C@@H]1N=C(c2ccc(Cl)cc2)c2c(sc(C)c2C)-n2c(C)nnc21,–,–,–,–,–,–,–,–,–,–,–,IC50 [1]: 77 nM
Cc1cc(-c2cc(NS(C)(=O)=O)ccc2OC2CCCCC2)n2cc[nH]c(=O)c12,0.9,5400,6.3,4.9,> 1,333,752,2.7,2137,–,–,–
CCS(=O)(=O)Cc1ccc(Oc2ccc(F)cc2F)c(-c2cc(C)c3c(=O)[nH]ccn23)c1,33.9,18600,12,6.5,> 1,175,46,46.3,61.9,4.7,7.4,–
Cc1cc(-c2cc(NS(C)(=O)=O)ccc2Oc2ccc(F)cc2F)n2cc[nH]c(=O)c12,6.4,17800,14.9,36.6,> 1,141,36.2,58.1,327,–,–,–
Cc1sc2c(c1C)C(c1ccc(Cl)cc1)=N[C@@H](CC(N)=O)c1nnc(C)n1-2,–,–,–,–,–,–,–,–,–,–,–,IC50 [13]: 92 to 112 nM
CCS(=O)(=O)Nc1ccc(Oc2ccc(F)cc2F)c(-c2cc(C)c3c(=O)[nH]ccn23)c1,7.9,4000,9.1,14.5,> 1,229,62,33.9,264,–,–,–
Cc1sc2c(c1C)C(c1ccc(Cl)cc1)=N[C@@H](CC(=O)Nc1ccc(O)cc1)c1nnc(C)n1-2 [BIRABRESIB],–,> 33000,–,46.3,–,–,–,–,–,–,–,IC50 (RS4-11): 416 nM; inhibition in vivo at 50 mg/kg (MV4-11 [14]): 62.3%; IC50 (MM1.S): 137 nM; IC50 (Kasumi 1): 135 nM; Activity (MV4-11 [15]): Active
Cc1cc(-c2cc(CS(C)(=O)=O)cnc2Oc2ccc(F)cc2F)n2cc[nH]c(=O)c12,32.5,2200,58.5,14.2,> 1,35.7,26.1,80.4,64.6,7.4,3.5,AUC(0-t) [16]: 457 ng·h/mL; half-life [17]: 90 min; clearance [18]: 37.5 mL/min/kg; half-life [19]: 48 min; Cmax [20]: 160 ng/mL; Vd [21]: 1.9 L/kg; bioavailability [22]: 37.9%; AUC(0-t) [23]: 520 ng·h/mL
Cc1cc(-c2cc(NS(C)(=O)=O)ccc2Oc2ccccn2)n2cc[nH]c(=O)c12,–,12600,–,211,> 1,–,–,–,–,27.3,25.9,–
Cc1cc(-c2cc(NS(C)(=O)=O)ccc2Oc2ccccc2)n2cc[nH]c(=O)c12,0.7,25100,18.1,20.4,> 1,116,74,28.4,3039,–,–,–
CCS(=O)(=O)Nc1ccc(Oc2ccc(F)cc2F)c(-c2cn(C)c(=O)c3[nH]ccc23)c1 [MIVEBRESIB],–,63,–,1.9,> 1,–,–,–,–,–,2.7,IC50 (RS4-11): 6.4 nM; IC50 (MM1.S): 6.5 nM; IC50 (Kasumi 1): 6.3 nM
Cc1cc(-c2cc(NS(C)(=O)=O)ccc2OCC2CC2)n2cc[nH]c(=O)c12,–,25100,–,185,> 1,–,–,–,–,78.6,77.2,–
Cc1cc(-c2cc(CS(C)(=O)=O)ccc2Oc2ccc(F)cc2F)n2cc[nH]c(=O)c12,18.8,16500,5.5,14.8,> 1,380,115,18.2,112,–,–,–
